In one experiment the target is EED (Homo sapiens, UniProt O75530). Nature of the experiment: EED TR-FRET Binding Assay (modified LanthaScreen competition assay). An outline of the steps:
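Competition binding in a modified LanthaScreen format, in 20 mM Tris-HCl pH 7.5, 200 mM NaCl, 0.01% Tween-20, 10 uM DTT and 0.05% BSA. Reactions ran 1 hour at 25° C before TR-FRET detection.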

The test system of experiment [1] is H3K27me3 in OCILY19 cells. Nature of the experiment: H3K27me3 AlphaLISA assay in OCILY19 cells. Type of experiment: cell-based. The note with it: Homo sapiens, OCI-LY19, 144 h, 6 days with compound, read-out: OCILY-19 IC50. Here is the method: 5,000 cells were plated into each well of 96-well Corning CellBing cell culture plates and incubated overnight at 37° C. in a humidified CO2 incubator. […] The cell culture plates were then incubated for 6 more days. H3K27me3 AlphaLISA assay was performed on the cell culture samples by using AlphaLISAR® H3K27me3 Cellular Detection Kit (PerkinElmer) and 96-well white half-area plates (PerkinElmer).

For a further experiment, the system named is H3K27me3 in G401 cells. Nature of the experiment: H3K27me3 AlphaLISA assay in G401 cells. It counts as cell-based. As to conditions: Homo sapiens, G-401, 144 h, 6 days with compound.
The test system of the next experiment is Pfeiffer cells. The experiment can be described thus: CTG cell viability assay (CellTiter-Glo). It counts as cell-based. As to conditions: Homo sapiens, 240 h; for pIC50: Pfeiffer cells, 10 days with compound, CellTiter-Glo, read-out: Cell Proliferation IC50. Here is the method: 1,000 cells were plated into each well of 96-well Corning CellBing cell culture plates and incubated overnight at 37° C. in a humidified CO2 incubator. […] The cell culture plates were then incubated for 10 more days. CTG cell viability assay was performed on the cell culture samples by using CellTiter-Glo® Luminescent Cell Viability Assay Kit (Promega).

The structures appear in SMILES notation. pIC50: −log10 of the molar value. Like-named read-outs stand apart in the source and are kept apart here.

EED, sequence (O75530 whole entry): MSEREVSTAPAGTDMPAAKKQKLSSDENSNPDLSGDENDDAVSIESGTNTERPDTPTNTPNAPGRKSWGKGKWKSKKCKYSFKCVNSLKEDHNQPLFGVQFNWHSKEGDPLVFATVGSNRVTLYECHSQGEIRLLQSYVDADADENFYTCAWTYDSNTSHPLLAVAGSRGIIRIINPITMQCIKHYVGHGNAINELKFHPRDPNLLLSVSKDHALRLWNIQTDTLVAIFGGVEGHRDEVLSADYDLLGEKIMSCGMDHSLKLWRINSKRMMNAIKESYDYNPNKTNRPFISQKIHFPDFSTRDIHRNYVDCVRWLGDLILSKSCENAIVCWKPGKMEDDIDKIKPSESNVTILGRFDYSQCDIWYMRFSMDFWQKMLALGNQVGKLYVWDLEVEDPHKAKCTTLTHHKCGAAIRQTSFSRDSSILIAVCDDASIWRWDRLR

Take `CNC(=O)c1ccc(N2CCC([C@H]3CN(C4CCc5cccc(F)c54)C[C@@H]3N(C)C)CC2)nc1` (mixture of isomers) [Example 154, rac-6-{4-[(3S,4R)-4-(dimethylamino)-1-(7-fluoro-2,3-dihydro-1H-inden-1-yl)pyrrolidin-3-yl]piperidin-1-yl}-N-methylpyridine-3-carboxamide]: the pIC50 at EED was 8.70; in experiment [1] it was 6.31; in the experiment with H3K27me3 in G401 cells it was 6.43; in the experiment with Pfeiffer cells, 6.34.
With `CN(C)[C@H]1CN(C2CCc3cccc(F)c32)C[C@@H]1c1nn(C)c2ccccc12` (mixture of isomers) [Example 156, rac-(3R,4S)-1-(7-fluoro-2,3-dihydro-1H-inden-1-yl)-N,N-dimethyl-4-(1-methyl-1H-indazol-3-yl)pyrrolidin-3-amine], the pIC50 at EED was 8.85; in experiment [1] it was 6.53; with H3K27me3 in G401 cells it was 6.67; in the experiment on Pfeiffer cells, 6.43.
Turning to `CN(C)[C@@H]1CN(C2CCc3cccc(F)c32)C[C@H]1c1ccc(N2CCN(C(=O)CS(C)(=O)=O)CC2)nc1` (mixture of isomers) [Example 157, rac-1-(4-{5-[(3R,4S)-4-(dimethylamino)-1-(7-fluoro-2,3-dihydro-1H-inden-1-yl)pyrrolidin-3-yl]pyridin-2-yl}piperazin-1-yl)-2-(methanesulfonyl)ethan-1-one], the pIC50 at EED was 8.85; in experiment [1], 6.69; with H3K27me3 in G401 cells it was 6.64; with Pfeiffer cells, 6.45.
As for `CN(C)[C@@H]1CN(C2CCc3cccc(F)c32)C[C@H]1c1ccc(-c2cnn(CC(N)=O)c2)nc1` (mixture of isomers) [Example 158, rac-2-(4-{5-[(3R,4S)-4-(dimethylamino)-1-(7-fluoro-2,3-dihydro-1H-inden-1-yl)pyrrolidin-3-yl]pyridin-2-yl}-1H-pyrazol-1-yl)acetamide], the pIC50 at EED is 8.86; in experiment [1], 7.06; in the experiment with H3K27me3 in G401 cells, 6.90; with Pfeiffer cells it was 6.41.
On to `CN(C)C(=O)Cn1cc(-c2ccc([C@@H]3CN(C4CCc5cccc(F)c54)C[C@H]3N(C)C)cn2)cn1` (mixture of isomers) [Example 159, rac-2-(4-{5-[(3R,4S)-4-(dimethylamino)-1-(7-fluoro-2,3-dihydro-1H-inden-1-yl)pyrrolidin-3-yl]pyridin-2-yl}-1H-pyrazol-1-yl)-N,N-dimethylacetamide], for which the pIC50 is 8.94 on EED, 6.63 in experiment [1], 6.80 with H3K27me3 in G401 cells and 6.61 with Pfeiffer cells.
In the case of `CN(C)[C@@H]1CN(C2CCc3cccc(F)c32)C[C@H]1c1ccc(N2CCN(C(=O)CS(N)(=O)=O)CC2)nc1` (mixture of isomers) [Example 160, rac-2-(4-{5-[(3R,4S)-4-(dimethylamino)-1-(7-fluoro-2,3-dihydro-1H-inden-1-yl)pyrrolidin-3-yl]pyridin-2-yl}piperazin-1-yl)-2-oxoethane-1-sulfonamide], the pIC50 at EED is 8.97; in experiment [1] it was 6.82; with H3K27me3 in G401 cells, 6.72; with Pfeiffer cells, 6.52.
On to `CNC(=O)Cn1cc(-c2ccc([C@@H]3CN(C4CCc5cccc(F)c54)C[C@H]3N(C)C)cn2)cn1` (mixture of isomers) [Example 161, rac-2-(4-{5-[(3R,4S)-4-(dimethylamino)-1-(7-fluoro-2,3-dihydro-1H-inden-1-yl)pyrrolidin-3-yl]pyridin-2-yl}-1H-pyrazol-1-yl)-N-methylacetamide], for which the pIC50 was 9.17 at EED, 6.24 in experiment [1], 6.82 with H3K27me3 in G401 cells and 6.53 in the experiment on Pfeiffer cells.
On to `CN(C)[C@H]1CN(C2CCc3cccc(F)c32)C[C@@H]1C1CCN(c2ncc(C(N)=O)s2)CC1` (mixture of isomers) [Example 162, rac-2-{4-[(3S,4R)-4-(dimethylamino)-1-(7-fluoro-2,3-dihydro-1H-inden-1-yl)pyrrolidin-3-yl]piperidin-1-yl}-1,3-thiazole-5-carboxamide], for which the pIC50 at EED is 9.19; in experiment [1] it was 6.31; in the experiment with H3K27me3 in G401 cells it was 6.54; in the experiment with Pfeiffer cells, 6.67.
Taken in the same sequence, the figures for `CN(C)[C@H]1CN(C2CCc3cccc(F)c32)C[C@@H]1c1cn(C)c2ncccc12` (mixture of isomers) [Example 164, rac-(3R,4S)-1-(7-fluoro-2,3-dihydro-1H-inden-1-yl)-N,N-dimethyl-4-(1-methyl-1H-pyrrolo[2,3-b]pyridin-3-yl)pyrrolidin-3-amine] were 9.31, 6.34, 6.54 and 6.83.
`CN(C)[C@H]1CN(C2CCc3cccc(F)c32)C[C@@H]1C1CCN(c2ccc(C(N)=O)nn2)CC1` (mixture of isomers) [Example 165, rac-6-{4-[(3S,4R)-4-(dimethylamino)-1-(7-fluoro-2,3-dihydro-1H-inden-1-yl)pyrrolidin-3-yl]piperidin-1-yl}pyridazine-3-carboxamide]: the pIC50 was 9.32 on EED, 6.57 in experiment [1], 7.25 with H3K27me3 in G401 cells and 6.54 in the experiment with Pfeiffer cells.
Regarding `CN(C)[C@H]1CN(C2CCc3cccc(F)c32)C[C@@H]1C1CCN(c2ccc(C(N)=O)cc2)CC1` (mixture of isomers) [Example 166, rac-4-{4-[(3S,4R)-4-(dimethylamino)-1-(7-fluoro-2,3-dihydro-1H-inden-1-yl)pyrrolidin-3-yl]piperidin-1-yl}benzamide], the pIC50 was 9.34 at EED, 6.56 in experiment [1], 6.64 in the experiment with H3K27me3 in G401 cells and 6.89 in the experiment on Pfeiffer cells.
Take `CN(C)[C@H]1CN(C2CCc3cccc(F)c32)C[C@@H]1C1CCN(c2ccc(C(N)=O)cn2)CC1` (mixture of isomers) [Example 167, rac-6-{4-[(3S,4R)-4-(dimethylamino)-1-(7-fluoro-2,3-dihydro-1H-inden-1-yl)pyrrolidin-3-yl]piperidin-1-yl}pyridine-3-carboxamide]: the pIC50 was 9.40 on EED, 6.57 in experiment [1], 6.88 in the experiment with H3K27me3 in G401 cells and 6.84 with Pfeiffer cells.
For the compound `CC(=O)N1CCN(c2ccc([C@H]3CN([C@H]4CCc5cccc(F)c54)C[C@@H]3N(C)C)cc2)CC1` [Example 45, 1-[4-(4-{(3S,4R)-4-(dimethylamino)-1-[(1S)-7-fluoro-2,3-dihydro-1H-inden-1-yl]pyrrolidin-3-yl}phenyl)piperazin-1-yl]ethan-1-one], the pIC50 is 9.52 at EED, 7.36 in experiment [1] and 7.51 in the experiment on H3K27me3 in G401 cells. Further, the IC50 with Pfeiffer cells (Pfeiffer, read-out: Cell Proliferation IC50 (uM)) came to 0.0284 µM.
As for `CN(C)[C@H]1CN(C2CCc3cccc(F)c32)C[C@@H]1c1cn(C)c2c(C(=O)N3CC(F)C3)cccc12` (stereo partly drawn) [Example 102, {3-[(3S,4R)-4-(dimethylamino)-1-(7-fluoro-2,3-dihydro-1H-inden-1-yl)pyrrolidin-3-yl]-1-methyl-1H-indol-7-yl}(3-fluoroazetidin-1-yl)methanone], the pIC50 on EED was 9.47; in experiment [1] it was 7.00; with H3K27me3 in G401 cells, 7.39; in the experiment with Pfeiffer cells, 7.13.
Consider `CN(C)[C@H]1CN(C2CCc3cccc(F)c32)C[C@@H]1c1cn(C)c2c(C(=O)N3CC(O)C3)cccc12` (stereo partly drawn) [Example 105, {3-[(3S,4R)-4-(dimethylamino)-1-(7-fluoro-2,3-dihydro-1H-inden-1-yl)pyrrolidin-3-yl]-1-methyl-1H-indol-7-yl}(3-hydroxyazetidin-1-yl)methanone], for which the pIC50 was 9.46 at EED, 7.57 in experiment [1], 7.25 in the experiment on H3K27me3 in G401 cells and 7.41 in the experiment with Pfeiffer cells.
Take `CN(C)[C@H]1CN(C2CCc3cccc(F)c32)C[C@@H]1c1cn(C)c2c(C(=O)N3CCN(S(=O)(=O)N4CCC4)CC3)cccc12` (stereo partly drawn) [Example 132, [4-(azetidine-1-sulfonyl)piperazin-1-yl]{3-[(3S,4R)-4-(dimethylamino)-1-(7-fluoro-2,3-dihydro-1H-inden-1-yl)pyrrolidin-3-yl]-1-methyl-1H-indol-7-yl}methanone]: the pIC50 at EED is 8.84; in experiment [1], 6.79; in the experiment with H3K27me3 in G401 cells, 7.20; in the experiment on Pfeiffer cells, 7.03.
Taken in the same sequence, the figures for `CN(C)[C@H]1CN(C2CCc3cccc(F)c32)C[C@@H]1c1cn(C)c2c(C(=O)N3CCN(S(=O)(=O)N4CC(C#N)C4)CC3)cccc12` (stereo partly drawn) [Example 133, 1-(4-{3-[(3S,4R)-4-(dimethylamino)-1-(7-fluoro-2,3-dihydro-1H-inden-1-yl)pyrrolidin-3-yl]-1-methyl-1H-indole-7-carbonyl}piperazine-1-sulfonyl)azetidine-3-carbonitrile] were 8.84, 6.69, 7.21 and 6.88.

Source of the values: patent publication US9957274B2, “Indane inhibitors of EED and methods of their use” (AbbVie Inc., priority 2016, dated 2018).
